Laboratory results reported in paper PMC8977034, “Amphipathic dendritic poly-peptides carrier to deliver antisense oligonucleotides against multi-drug resistant bacteria in vitro and in vivo” (Journal of Nanobiotechnology, 2022).

Assays:
ESBLs-E. coli [1] = experiment: Survival assay in mouse sepsis model; format: in vivo, male Balb/c mice; settings: text 1.5 mg kg^−1, methods and Fig. 5 legend 4 mg/kg; i.p. at 0.5 and 6 h after infection; n = 10
Procedure: Male Balb/c mice (6–8 weeks old and weighing 18–22 g) were used in this experiment. The experimental and animal care procedures were approved by the Animal Care and Use Committee of Fourth Military Medical University. All methods were carried out strictly in accordance with the approved guidelines. 4 × 10^5 CFU ESBLs-E. coli in 400 μl M–H broth were administrated intraperitoneally into the mice to construct a sepsis model. Then, the mice were randomly divided to ten groups, which were administered intraperitoneally with 400 μL solutions containing 0.5 (based on ASOs), 1 or 1.5 mg kg^−1 DP-AD7anti-acpP and the counterpart DP-AD7mismatch, 1.5 mg kg^−1 L-DP-AD7anti-acpP, 1.5 mg kg^−1 LF2000-NPsanti-acpP, 4 mg kg^−1 ceftazidime or PBS at 0.5 and 6 h after infection. The surviving mice in each group were monitored every 6 h for the first day, afterwards, monitored every 12 h for 7 days day after infection, and the survival ratio was analyzed by Kaplan–Meier estimator.

ESBLs-E. coli [2] = experiment: Bacterial load (CFU) in organs of septic mice; format: in vivo, male Balb/c mice; settings: text 1.5 mg kg^−1, methods 4 mg kg^−1; ten hours after infection; mean ± SE
Procedure: Two mice in each group were sacrificed 10 h after infection to study the bacterial clearance. The liver and kidney were harvested aseptically, one kidney and one lobe of liver of each mouse were weighed, and homogenized in 500 μl sterile saline solution, then 50 μl homogenate sample of each mice was performed serial tenfold dilutions to a 10^–5 dilution. Carefully spread 100 μL of each dilution onto a M–H agarose plate using a glass spreader. Incubate plates at 37 °C overnight and calculate the bacterial load. Colony counts were expressed as CFU g^−1 of tissue.

[3] = test system: E. coli, ESBLs-E. coli, S. aureus and MRSA; experiment: Delivery efficiency by flow cytometry, tested strains together; format: cell-based; settings: FAM-labeled, 1 h, 37 °C, flow cytometry (Fig. S9, S10)
Procedure: To measure the delivery efficiency, FAM-labeled DP-AD were added to bacterial cultures (approximately 5 × 10^6 CFU in 300 μl M–H broth) and incubated at 37 °C for 1 h away from light. The bacterial solutions were centrifuged at 2500 g at 4 °C for 5 min and washed twice with phosphate buffered saline (PBS) before analyzing them using the BL1 (green) channel in flow cytometry (Novocyte, Acer, USA). Data were analyzed using Flowjo software (version 10.0.7, Tree Star, Ashland, OR, USA). Free FAM-labeled ASOs and LF2000-NPs were used as the negative and positive control, respectively.
To measure the delivery rate of DP-AD7 in different types of bacteria, the bacteria (approximately 5 × 10^6 CFU in 300 μl M–H broth) were incubated with FAM-labeled DP-AD7 for 5, 10, 30 or 60 min at 37 °C or at 4 °C for 60 min in dark, then the bacterial solutions were processed, measured and analyzed as described above.

Row | Compound | Survival rate of septic mice, ceftazidime (ESBLs-E. coli [1]) | Average bacterial load in the kidney, ceftazidime (ESBLs-E. coli [2]) | Capacity to deliver ASOs into bacteria [3]
1 | CC(C)(O/N=C(\C(=O)N[C@@H]1C(=O)N2C(C(=O)[O-])=C(C[n+]3ccccc3)CS[C@H]12)c1csc(N)n1)C(=O)O [ceftazidime] | 30% | 8.41 ± 1.60 × 10^7 CFU g^−1 | 
2 | Ac-LWALWK(Ac)K(Ac)K(Ac)RRHRRRHR [L-DPP, linear counterpart of DPP7, amphipathic, 9 positive charge and 2 His residues] |  |  | failure
